For test [1], the target named is T1, HEK293 transfected with human DDR2 (Homo sapiens, UniProt Q16832).
T1 construct: expressed in transfected cells; host or cells: HEK293 (PLT460F_(DDR2)-P7-1)
T1 sequence (Q16832 22-855): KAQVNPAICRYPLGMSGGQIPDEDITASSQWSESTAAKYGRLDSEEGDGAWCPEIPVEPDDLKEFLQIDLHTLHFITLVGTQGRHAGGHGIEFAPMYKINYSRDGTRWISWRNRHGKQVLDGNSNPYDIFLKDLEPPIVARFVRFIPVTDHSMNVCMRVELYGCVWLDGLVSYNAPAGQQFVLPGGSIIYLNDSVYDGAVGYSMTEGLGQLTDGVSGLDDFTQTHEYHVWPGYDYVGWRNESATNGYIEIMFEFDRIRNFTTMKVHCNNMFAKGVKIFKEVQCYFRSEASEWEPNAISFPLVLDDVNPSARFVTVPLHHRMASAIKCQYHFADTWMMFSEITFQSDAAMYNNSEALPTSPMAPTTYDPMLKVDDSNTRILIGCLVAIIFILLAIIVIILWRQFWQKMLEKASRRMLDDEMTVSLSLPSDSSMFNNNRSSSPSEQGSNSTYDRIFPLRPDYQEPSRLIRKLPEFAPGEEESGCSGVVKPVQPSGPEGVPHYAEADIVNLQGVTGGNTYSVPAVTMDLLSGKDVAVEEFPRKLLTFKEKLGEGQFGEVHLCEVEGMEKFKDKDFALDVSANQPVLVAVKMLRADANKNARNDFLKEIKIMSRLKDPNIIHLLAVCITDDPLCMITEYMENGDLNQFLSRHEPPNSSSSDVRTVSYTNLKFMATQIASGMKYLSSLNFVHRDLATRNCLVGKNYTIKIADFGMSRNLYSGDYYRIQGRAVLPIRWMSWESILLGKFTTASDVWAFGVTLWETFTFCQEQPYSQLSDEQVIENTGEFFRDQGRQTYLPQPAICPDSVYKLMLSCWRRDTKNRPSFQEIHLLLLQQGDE
Kind of test: Phospho-DDR2 cellular assay (collagen II induced DDR2 phosphorylation, ELISA). As to conditions: cellular phospho-DDR2; read-out: IC50 [p-DDR2]. The class given is cell-based. A digest of the protocol: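 Cells seeded 48 h in 10% FBS, serum-starved 8 h, then given compound (5% DMSO) with 50 μg/ml chicken collagen II for 16 h at 37 °C. Lysates captured on anti-DDR2 antibody plates; phospho-DDR2 detected with HRP anti-phosphotyrosine antibody by chemiluminescence.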
On the technique in general: An ELISA detects its analyte on a solid surface through an enzyme-linked reagent.

In test [2] the target is T2, His-tagged human recombinant DDR-2 kinase domain (His-TEV-DDR2 467-855 aa) (Homo sapiens, UniProt Q16832).
T2 construct: His-TEV-DDR2 467-855 aa
T2 sequence (Q16832 467-855): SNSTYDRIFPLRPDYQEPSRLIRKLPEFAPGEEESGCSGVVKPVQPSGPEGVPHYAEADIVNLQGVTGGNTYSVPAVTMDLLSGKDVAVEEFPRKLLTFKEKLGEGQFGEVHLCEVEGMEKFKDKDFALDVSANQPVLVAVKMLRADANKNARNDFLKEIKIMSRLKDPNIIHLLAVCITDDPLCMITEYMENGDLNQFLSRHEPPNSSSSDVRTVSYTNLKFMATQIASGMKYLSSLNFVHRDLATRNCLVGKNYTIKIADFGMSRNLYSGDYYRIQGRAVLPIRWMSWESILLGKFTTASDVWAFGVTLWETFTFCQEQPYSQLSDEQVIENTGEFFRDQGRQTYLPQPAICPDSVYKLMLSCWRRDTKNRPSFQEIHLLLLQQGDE
Nature of the test: Autophosphorylation assay for biochemical activity testing of DDR2 (HTRF). As to conditions: biochemical DDR2 autophosphorylation. The gist of the method: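 Phospho-tyrosine was detected by HTRF between XL665 anti-6His and cryptate anti-phosphotyrosine PT66 antibodies, using the emission ratio. Inhibition was referenced to the inhibitor-free reaction.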

Molecules are shown by their SMILES.

A word on the IC50: it is the point on the concentration scale where inhibition reaches its midpoint.

Regarding `CNC(=O)c1cc(Oc2ccc(CNC(=O)Nc3cc(C(F)(F)F)ccc3OCCN3CCNCC3)cc2)ccn1` [compound 112, 4-(4-{3-[2-(2-Piperazin-1-yl-ethoxy)-5-trifluoromethyl-phenyl]-ureidomethyl}-phenoxy)-pyridine-2-carboxylic acid methylamide], the IC50 in test [1] came to 47 nM; in test [2], 130 nM.
In the case of `CNC(=O)c1cc(Oc2ccc(CNC(=O)Nc3cc(C)c(Cl)cc3OCCN(C)C)cc2)ccn1` [compound 118, 4-(4-{3-[4-Chloro-2-(2-dimethylamino-ethoxy)-5-methyl-phenyl]-ureidomethyl}-phenoxy)-pyridine-2-carboxylic acid methylamide], the IC50 was 55 nM in test [1] and 200 nM in test [2].
Regarding `CNC(=O)c1cc(Oc2ccc(CNC(=O)Nc3cc(C)c(Cl)cc3OC3CCNCC3)cc2)ccn1` [compound 124, 4-(4-{3-[4-Chloro-5-methyl-2-(piperidin-4-yloxy)-phenyl]-ureidomethyl}-phenoxy)-pyridine-2-carboxylic acid methylamide], the figures for the IC50 in test [1] and in test [2] were 40 nM and 66 nM, respectively.
As for `CNCCOc1cc(Cl)c(C)cc1NC(=O)NCc1ccc(Oc2ccnc(C(=O)NC)c2)cc1` [compound 125, 4-(4-{3-[4-Chloro-5-methyl-2-(2-methylamino-ethoxy)-phenyl]-ureidomethyl}-phenoxy)-pyridine-2-carboxylic acid methylamide], the figures for the IC50 in test [1] and in test [2] were 52 nM and 187 nM, respectively.
Consider `CNCCOc1cc(Cl)c(C(F)(F)F)cc1NC(=O)NCc1ccc(Oc2ccnc(C(=O)NC)c2)cc1` [compound 127, 4-(4-{3-[4-Chloro-2-(2-methylamino-ethoxy)-5-trifluoromethyl-phenyl]-ureidomethyl}-phenoxy)-pyridine-2-carboxylic acid methylamide], for which the figures for the IC50 in test [1] and in test [2] were 34 nM and 47 nM, respectively.
`CNC(=O)c1cc(Oc2ccc(CNC(=O)Nc3cc(C(F)(F)F)c(Cl)cc3OCCN3CCNCC3)cc2)ccn1` [compound 128, 4-(4-{3-[4-Chloro-2-(2-piperazin-1-yl-ethoxy)-5-trifluoromethyl-phenyl]-ureidomethyl}-phenoxy)-pyridine-2-carboxylic acid methylamide]: the IC50 in test [1] worked out at 63 nM; in test [2] it was 91 nM.
Turning to `CNC(=O)c1cc(Oc2ccc(CNC(=O)Nc3cc(C(F)(F)F)c(Cl)cc3OC3CCNCC3)cc2)ccn1` [compound 130, 4-(4-{3-[4-Chloro-2-(piperidin-4-yloxy)-5-trifluoromethyl-phenyl]-ureidomethyl}-phenoxy)-pyridine-2-carboxylic acid methylamide], the results for the IC50 in test [1] and in test [2] were 24 nM and 34 nM, respectively.
Regarding `CNC(=O)c1cc(Oc2ccc(CNC(=O)Nc3cc(C)c(Cl)cc3OCCN(C)C)cc2C)ccn1` [compound 139, 4-(4-{3-[4-Chloro-2-(2-dimethylamino-ethoxy)-5-methyl-phenyl]-ureidomethyl}-2-methyl-phenoxy)-pyridine-2-carboxylic acid methylamide], the IC50 in test [1] stood at 18 nM; in test [2], 26 nM.
On to `CNCCOc1cc(Cl)c(C)cc1NC(=O)NCc1ccc(Oc2ccnc(C(=O)NC)c2)c(C)c1` [compound 141, 4-(4-{3-[4-Chloro-5-methyl-2-(2-methylamino-ethoxy)-phenyl]-ureidomethyl}-2-methyl-phenoxy)-pyridine-2-carboxylic acid methylamide], for which the IC50 stood at 25 nM in test [1] and 43 nM in test [2].
For `CNC(=O)c1cc(Oc2ccc(CNC(=O)Nc3cc(C)c(Cl)cc3OC3CCNCC3)cc2C)ccn1` [compound 142, 4-(4-{3-[4-Chloro-5-methyl-2-(piperidin-4-yloxy)-phenyl]-ureidomethyl}-2-methyl-phenoxy)-pyridine-2-carboxylic acid methylamide], the IC50 in test [1] was found to be 33 nM; in test [2], 36 nM.
Regarding `CNC(=O)c1cc(Oc2ccc(CNC(=O)Nc3cc(C)c(Cl)cc3OCCN3CCNCC3)cc2C)ccn1` [compound 143, 4-(4-{3-[4-Chloro-5-methyl-2-(2-piperazin-1-yl-ethoxy)-phenyl]-ureidomethyl}-2-methyl-phenoxy)-pyridine-2-carboxylic acid methylamide], the IC50 came to 66 nM in test [1] and 77 nM in test [2].
For the molecule `CNC(=O)c1cc(Oc2ccc(CNC(=O)Nc3cc(C)c(Cl)cc3OCCN)cc2C)ccn1` [compound 144, 4-(4-{3-[2-(2-Amino-ethoxy)-4-chloro-5-methyl-phenyl]-ureidomethyl}-2-methyl-phenoxy)-pyridine-2-carboxylic acid methylamide], the IC50 in test [1] stood at 53 nM; in test [2] it was 49 nM.
As to `CNC(=O)c1cc(Oc2ccc(CNC(=O)Nc3cc(C)c(Cl)cc3OCCN)cc2)ccn1` [compound 145, 4-(4-{3-[2-(2-Amino-ethoxy)-4-chloro-5-methyl-phenyl]-ureidomethyl}-phenoxy)-pyridine-2-carboxylic acid methylamide], the figures for the IC50 in test [1] and in test [2] were 65 nM and 91 nM, respectively.
In the case of `CNCCOc1ccc(C(F)(F)F)cc1NC(=O)NCc1ccc(Oc2ccnc(C(=O)NC)c2)c(C)c1` [compound 146, 4-(2-Methyl-4-{3-[2-(2-methylamino-ethoxy)-5-trifluoromethyl-phenyl]-ureidomethyl}-phenoxy)-pyridine-2-carboxylic acid methylamide], the figures for the IC50 in test [1] and in test [2] were 15 nM and 33 nM, respectively.
For the molecule `CNC(=O)c1cc(Oc2ccc(CNC(=O)Nc3cc(C(F)(F)F)ccc3OCCN(C)C)cc2C)ccn1` [compound 150, 4-(4-{3-[2-(2-Dimethylamino-ethoxy)-5-trifluoromethyl-phenyl]-ureidomethyl}-2-methyl-phenoxy)-pyridine-2-carboxylic acid methylamide], the half-maximal inhibitory concentration (IC50) came out at 10 nM in test [1] and 42 nM in test [2].
Taken in the same sequence, the figures for `CNC(=O)c1cc(Oc2ccc(CNC(=O)Nc3cc(C)c(Cl)cc3OCCCN(C)C)cc2)ccn1` [compound 153, 4-(4-{3-[4-Chloro-2-(3-dimethylamino-propoxy)-5-methyl-phenyl]-ureidomethyl}-phenoxy)-pyridine-2-carboxylic acid methylamide] were 55 nM and 140 nM.
On to `CNC(=O)c1cc(Oc2ccc(CNC(=O)Nc3cc(C(F)(F)F)ccc3OCCN)cc2C)ccn1` [compound 155, 4-(4-{3-[2-(2-Amino-ethoxy)-5-trifluoromethyl-phenyl]-ureidomethyl}-2-methyl-phenoxy)-pyridine-2-carboxylic acid methylamide], for which the IC50 in test [1] was 18 nM; in test [2], 40 nM.
As for `CNC(=O)c1cc(Oc2ccc(CNC(=O)Nc3cc(C(F)(F)F)ccc3OCC3CCCN3)cc2)ccn1` (centres unmarked) [compound 156, 4-(4-{3-[2-(Pyrrolidin-2-ylmethoxy)-5-trifluoromethyl-phenyl]-ureidomethyl}-phenoxy)-pyridine-2-carboxylic acid methylamide], the values for the 50% inhibitory concentration (IC50) in test [1] and in test [2] were 16 nM and 43 nM, respectively.
As to `CNC(=O)c1cc(Oc2ccc(CNC(=O)Nc3cc(C(F)(F)F)ccc3OCC(C)(C)N)cc2)ccn1` [compound 160, 4-(4-{3-[2-(2-Amino-2-methyl-propoxy)-5-trifluoromethyl-phenyl]-ureidomethyl}-phenoxy)-pyridine-2-carboxylic acid methylamide], the IC50 in test [1] came out at 95 nM; in test [2], 360 nM.

The record behind these values is patent US20150225369A1, “DDR2 INHIBITORS FOR THE TREATMENT OF OSTEOARTHRITIS” (Merck Patent GmbH, priority 2012, published 2015).
